According to patent publication US8278072B1, “Method for synthesis of sialylated products using reversible sialylation” (Health Research, Inc., priority 2007, dated 2012):

What was measured:
Assay type in all cases: biochemical
ST3Gal-II [1] = target: T1, ST3Gal-II (Rattus norvegicus, UniProt Q11205); test: Serial transfer of sialic acid from donor via 5′-CMP to acceptors (scheme-II); details: 0.15 mM donor; 2 mM 5′-CMP with core-2 donors
T1 construct: purchased Calbiochem
T1 sequence (Q11205 1-350): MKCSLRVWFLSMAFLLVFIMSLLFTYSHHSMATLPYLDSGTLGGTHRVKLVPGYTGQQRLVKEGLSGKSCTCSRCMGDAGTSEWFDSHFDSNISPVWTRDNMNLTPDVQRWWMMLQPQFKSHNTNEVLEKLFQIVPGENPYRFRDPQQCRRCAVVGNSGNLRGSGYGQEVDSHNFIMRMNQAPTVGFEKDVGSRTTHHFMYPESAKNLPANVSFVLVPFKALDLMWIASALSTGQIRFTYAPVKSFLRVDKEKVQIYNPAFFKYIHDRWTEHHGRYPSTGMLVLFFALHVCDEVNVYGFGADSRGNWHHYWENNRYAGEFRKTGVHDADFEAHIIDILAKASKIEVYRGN
Procedure: FIG. 3. Serial transfer of sialic acid using scheme-II was followed at increasing concentrations of acceptor D-Fucβ1,3GalNAcα-O-Bn. The donor used was either: i) 0.15 mM [9-^3H]CMP-NeuAc; or, ii) 0.15 mM [9-^3H]NeuAcα2,3Galβ1,3(4-FGlcNAcβ1,6)GalNAcα-O-Bn [9-^3H [2]] in the presence of 2.0 mM 5′-CMP, or iii) [9-^3H]NeuAcα2,3Galβ1,3(6-O-SulfoGlcNAcβ1,6)GalNAcα-O—Al [[9-^3H] [4]] in the presence of 2.0 mM 5′-CMP. In runs where [9-^3H [2]] was donor since both and [2] bind C18 cartridges, control runs were performed in the absence of D-Fucβ1,3GalNAcα-O-Bn to estimate the amount of [9-^3H]CMP-NeuAc formed under the experimental conditions. 80-85% of the radioactivity was transferred to CMP-NeuAc in these runs. The amount of CMP-NeuAc remaining in runs with was then subtracted from CMP-NeuAc radioactivity in the control run to determine the amount of sialylated. To complement this run, studies were also performed with [[9-^3H] […] In these runs, the amount of sialylated was determined by measuring radioactivity retained in the C18-cartridge. a. Equilibrium constant was 5.55 when CMP-[9-^3H]NeuAc was donor. b. ˜10-fold lower acceptor concentration was required for similar extents of reaction when CMP-[9-^3H]NeuAc was donor, compared to core-2 based donors and [4].
We tested the possibility that CMP-NeuAc formed above may be available for transfer to other acceptors using ST3Gal-II (scheme-II, FIG. 3). For this, three radiolabeled donors were prepared using methods described above: two were based on the mucin Core-2 structure ([[9-^3H] [1]] and [9-^3H]NeuAcα2,3Galβ1,3(6-O-SulfoGlcNAcβ1,6)GalNAcα-O—Al [[9-^3H] [4]]) while the third was based on the Globo glycolipid ([9-^3H] [3]). The transfer of [9-^3H]NeuAc from these sialylated donors to various T-hapten (Galβ1,3GalNAcα) and mucin core2-based glycoside acceptors in the presence of 5′-CMP and ST3Gal-II was assessed (Table III). All three […] of ST3Gal-II ([1], [3] and [4]) allowed formation of CMP-[9-^3H]NeuAc, and a diverse array of products.
The transfer of [9-^3H]NeuAc from [[9-^3H][1]] to D-Fucβ1,3GalNAcα-O-Bn in the presence of 5′-CMP and ST3Gal-II increased linearly in the first two hours and it reached saturation at 4 hours (FIG. 12), and thus the data in Table III (4 hours time point) represent equilibrium conditions. […] Further, diverse sialylated products can be formed using the same synthetic sialylated donor.
In order to compare the efficiency of individual reactions of scheme II, independent runs were performed where either 0.15 mM [9-^3H]CMP-NeuAc, 0.15 mM [9-^3H] [2] or 0.15 mM [9-^3H] [4] was the donor, and [5] was the acceptor (FIG. 3). 2 mM 5′-CMP was added in runs with core-2 donors and [4], and thus reverse sialylation of these molecules was feasible. Keq for transfer of sialic acid from CMP-NeuAc to [5] was 5.55 (FIG. 3a). […] (˜6 mM) or [9-^3H[4]] (˜6 mM). Thus, while the two-step mechanism results in lower conversion than CMP-NeuAc alone, the transfer of NeuAc still takes place at an appreciable rate.

ST3Gal-II [2] = target: T1, ST3Gal-II; test: CMP-NeuAc / UMP-NeuAc formed by reverse sialylation as sialyl donor, ST3Gal-II activity; details: acceptor 2.5 mM D-Fucβ1,3GalNAcα-O-Bn; donor [3] 0.0625 mM, 8 mM 5′-CMP or 5′-UMP, 4 h, blank subtracted
ST3Gal-III = target: T2, ST3Gal-III (Rattus norvegicus, UniProt Q02734); test: CMP-NeuAc / UMP-NeuAc formed by reverse sialylation as sialyl donor, ST3Gal-III activity; details: acceptor 2.5 mM 4-O-MeGalβ1,4GlcNAcβ-O-Bn; donor [3] 0.0625 mM, 8 mM 5′-CMP or 5′-UMP, ST3Gal-II plus ST3Gal-III, 4 h
T2 construct: purchased Calbiochem
T2 sequence (Q02734 1-374): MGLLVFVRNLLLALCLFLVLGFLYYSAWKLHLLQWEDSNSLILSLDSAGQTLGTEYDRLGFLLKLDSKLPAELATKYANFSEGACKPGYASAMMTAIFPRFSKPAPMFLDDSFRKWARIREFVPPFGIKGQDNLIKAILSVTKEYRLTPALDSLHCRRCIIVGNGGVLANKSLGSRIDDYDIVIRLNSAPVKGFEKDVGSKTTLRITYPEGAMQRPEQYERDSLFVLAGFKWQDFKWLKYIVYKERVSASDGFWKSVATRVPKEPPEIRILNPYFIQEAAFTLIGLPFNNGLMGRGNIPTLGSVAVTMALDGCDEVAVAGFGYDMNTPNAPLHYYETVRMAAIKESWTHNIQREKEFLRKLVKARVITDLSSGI

ST6Gal-I = target: T3, ST6Gal-I (Rattus norvegicus, UniProt P13721); test: CMP-NeuAc / UMP-NeuAc formed by reverse sialylation as sialyl donor, ST6Gal-I activity; details: acceptor 2.5 mM Galβ1,4GlcNAcβ-O-Bn; donor [3] 0.0625 mM, 8 mM 5′-CMP or 5′-UMP, ST3Gal-II plus ST6GalI, 4 h
T3 construct: purchased Calbiochem
T3 sequence (P13721 1-403): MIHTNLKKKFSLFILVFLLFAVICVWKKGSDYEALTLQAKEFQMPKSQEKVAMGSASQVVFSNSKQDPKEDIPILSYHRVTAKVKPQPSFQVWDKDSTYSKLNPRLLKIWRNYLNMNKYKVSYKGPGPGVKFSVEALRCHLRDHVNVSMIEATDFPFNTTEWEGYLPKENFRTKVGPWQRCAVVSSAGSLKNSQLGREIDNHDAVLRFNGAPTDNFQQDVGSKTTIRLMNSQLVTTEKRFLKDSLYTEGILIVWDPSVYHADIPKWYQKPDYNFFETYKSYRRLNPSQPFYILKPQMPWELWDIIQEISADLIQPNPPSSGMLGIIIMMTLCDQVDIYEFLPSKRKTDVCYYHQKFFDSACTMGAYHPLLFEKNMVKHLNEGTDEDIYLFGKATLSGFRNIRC

CC(=O)N[C@H]1[C@H]([C@H](O)[C@H](O)CO)O[C@](OP(=O)(O)OC[C@H]2O[C@@H](n3ccc(N)nc3=O)[C@H](O)[C@@H]2O)(C(=O)O)C[C@@H]1O [CMP-NeuAc, reference compound]
amount of acceptor [5] required for comparable transfer (ST3Gal-II [1]): 0.6 mM | Incorporation of [9-3H]NeuAc into the acceptor, ST3Gal-II activity (ST3Gal-II [2]): 134122 CPM | Incorporation of [9-3H]NeuAc into the acceptor, ST3Gal-III activity (ST3Gal-III): 59531 CPM | Incorporation of [9-3H]NeuAc into the acceptor, ST6Gal-I activity (ST6Gal-I): 15066 CPM
